Experimental data: US20140011755A1, “Cardiac Glycosides for Treating Autoimmune Disease” (Department of Veterans Affairs, priority 2010, published 2014)
“Also recorded” adds a separate entry of the source.

Assays:
[1] = Serum concentration obtained with experimental dosing regimen, mouse; assay type: in vivo; conditions: 0.3 mg/kg per diem, i.p., experimentally determined
Experimental: Dosing regimens in humans vary according to the cardiac glycoside and constitution thereof. Table 3 depicts representative dosing regimens reported in the literature compared to experimental regiments used in mice that are representative of human dosing. Successful dosing detailed in this application includes but is not limited to 0.03-0.4 mg/kg., or from 0.001 to 5 mg/kg.

[2] = tested on: collagen-induced arthritis (CIA); assay type: in vivo, DBA1/J mice
[3] = tested on: collagen-induced arthritis (CIA) joints; assay type: in vivo, DBA1/J mice; conditions: cross-sectioned ankle joints, CIA prevention groups
Experimental: FIG. 7. Cardiac glycosides reduce joint pathology in the CIA mouse model for rheumatoid arthritis. Blinded scoring was performed on histologic sections of joints harvested from mice at the end of a CIA prevention study (A-C). Joints derived from three representative mice belonging to each prevention group (A-C) were decalcified, fixed and stained with tolidine blue, followed by scoring by an examiner blinded to treatment status for the severity of synovitis (inflammation), pannus (growth of the synovial lining), and erosions of bone. (D-G) Joints derived from three representative mice belonging to each prevention group were decalcified, fixed, and stained with hematoxylin and eosin. Cross-sectioned ankle joints from vehicle (D), digitoxin (E), ouabain (F) and proscillaridin (G) treated mice are presented. Error bars represent SEM, and asterisks indicate P-values less than 0.05 by Mann-Whitney test.
In treatment studies, mice were randomly enrolled in treatment groups and treatment commenced when the average clinical score was at or above 2. […] Daily dosing commenced upon enrollment at the abovementioned concentrations. […] Double-blinded histopathology scoring was conducted of cross-sectioned joints taken from cardiac glycoside and vehicle recipients. […] The results obtained from these animal studies indicate that cardiac glycosides are effective at reducing the clinical manifestations of disease and reducing joint pathology in mice with collagen arthritis.
The effects of the different cardiac glycoside treatments on CIA pathology was analyzed by histological scoring. Inflammatory cell infiltrate, synovial hyperplasia, pannus formation and articular cartilage and bone deterioration were evaluated in sectioned paws of treated mice at specific time-points throughout the disease course. […] The ELISA was developed and read using BD ELISA development kit. […]

[4] = tested on: BAFFR; test: BAFF-mediated stimulation of B cells; assay type: cell-based, mice; conditions: 33 nM pre-treatment, BAFF 0.5 or 5 μg/ml
Experimental: (§1) Activity was monitored by ^3H-thymidine incorporation as a read-out for proliferation. […] Cell type(s) in the splenocyte population responsive to therapeutic concentrations of cardiac glycoside were determined by identifying the population of cells that responded to a dose-dependent decrease in activity in the presence of stimulant, defined as ligand(s) binding to cognate receptor(s). Activity was analyzed by: ^3H-thymidine or BrdU incorporation to monitor proliferation or by ELISA to monitor cytokine production. Splenic T lymphocytes were isolated by negative selection (MACS, Miltinyi Biotec) and are stimulated with PMA, ConA or through the TCR with anti-CD3/anti-CD28 Dynabeads (Invitrogen) and collagen II (all non-TNFR receptors/pathways). […] Peritoneal and bone marrow-derived macrophages were isolated from CIA mice in the presence of M-CSF growth factor and were stimulated with TNF and CD40 ligand (CD40L). […] Splenic B lymphocytes were isolated by negative selection (MACS, Miltinyi Biotec) and were stimulated with BAFF (BLyS), CD40L or through the BCR with anti-IgM u-chain specific antibodies.

[5] = target: T1, CD40 (Mus musculus, UniProt P27512); test: CD40-mediated B cell proliferation (anti-CD40, CD40L); assay type: cell-based, mice; conditions: pre-treatment of B cells
T1 construct: Peritoneal and bone marrow-derived macrophages were isolated from CIA mice; endogenous in cells; host or cells: peritoneal and bone marrow-derived macrophages from CIA mice
T1 sequence (P27512 20-289): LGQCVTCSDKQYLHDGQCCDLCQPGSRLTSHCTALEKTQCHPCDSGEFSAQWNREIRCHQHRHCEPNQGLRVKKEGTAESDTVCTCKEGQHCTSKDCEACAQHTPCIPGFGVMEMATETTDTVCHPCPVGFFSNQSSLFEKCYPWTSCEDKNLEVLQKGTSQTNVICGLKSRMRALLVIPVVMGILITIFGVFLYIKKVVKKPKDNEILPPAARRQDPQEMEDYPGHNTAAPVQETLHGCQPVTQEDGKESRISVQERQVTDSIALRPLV
Experimental: as §1

[6] = tested on: IL-10 cytokine secretion from B cells; test: IL-10 secretion (ELISA) by splenic B cells from treated MRL-Ipr mice; assay type: cell-based
Experimental: FIG. 19. […] MACS-purified B cells from vehicle or digitoxin-treated 23 week-old female MRL-Ipr mice were harvested from the spleen. 2×10^5 B cells were incubated either media, mifespristone (0.8 nM), Jak inhibitor I (15 nM), STAT3 inhibitor VI (500 μM) or dasatinib (1.1 nM) for 60 minutes, washed and incubated for 48 hr at 37° C. Cell supernatant was collected and ELISAs were used to quantify the amount of secreted IL-10 cytokine in each condition. Data represent the average of triplicate conditions and error bars represent the SEM. Statistical significance was performed using the student t-test.

[7] = oral; cited from earlier work
[8] = daily i.p. from Mean Visual Score of 2, digitoxin 0.3 mg/kg, proscillaridin […], Mann-Whitney

Structure (SMILES): C[C@H]1O[C@@H](O[C@H]2[C@@H](O)C[C@H](O[C@H]3[C@@H](O)C[C@H](O[C@H]4CC[C@@]5(C)[C@H](CC[C@@H]6[C@@H]5CC[C@]5(C)[C@@H](C7=CC(=O)OC7)CC[C@]65O)C4)O[C@@H]3C)O[C@@H]2C)C[C@H](O)[C@@H]1O [Digitoxin, digitoxin]
- Serum conc. [1]: 19 ng/mL
- disease and inflammation (clinical score, paw thickness), dosing every three days i.p. ([2]; 0.9 mg/kg digitoxin or 0.6 mg/kg ouabain, i.p., days −3, 0, 3, 6, 9, 12 after boost): significantly less disease and inflammation
- onset of collagen arthritis, dosing every three days sublingual ([2]; 0.9 mg/kg digitoxin or 0.6 mg/kg ouabain, sublingual, days −3, 0, 3, 6, 9, 12 after boost): significantly inhibited the onset of collagen arthritis; also recorded: effective in preventing
- Mean Paw Thickness, treatment of established arthritis [2, 8]: statistically significant reductions
- Mean Visual Score, treatment of established arthritis [2, 8]: statistically significant reductions
- development of CIA (Mean Visual Arthritis Score, Mean Paw Thickness), prevention study ([2]; daily i.p. from the day prior to induction, digitoxin 0.3 mg/kg, ouabain 0.03 mg/kg, proscillaridin […]): prevented the development of CIA
- average clinical arthritis scores compared to vehicle, prevention study ([2]; mouse, in vivo): significantly reduced
- prevention and treatment of collagen-induced arthritis (CIA) ([2]; murine model for rheumatoid arthritis, summary statement): potently prevent and treat
- immune cell infiltrate into the joints (hematoxylin and eosin) [3]: decreased amounts of immune cell infiltrate
- BAFF-mediated stimulation of B cells through BAFFR [4]: inhibited BAFF-mediated stimulation
- CD40L-mediated B cell proliferation [5]: inhibited CD40L-mediated proliferation
- anti-CD40 mediated B cell proliferation [5]: prevented anti-CD40 mediated B cell proliferation
- secreted IL-10 cytokine ([6]; 2×10^5 B cells from vehicle or digitoxin-treated 23 week-old mice, 48 hr, ELISA): induces IL-10 cytokine secretion
- mechanism dependence of IL-10 secretion (inhibitor pre-incubation) ([6]; mifespristone 0.8 nM, Jak inhibitor I 15 nM, STAT3 inhibitor VI 500 μM or dasatinib 1.1 nM for 60 minutes): dependent on steroid receptors, Jak activity, and STAT3 activity, but not BCR-ABL or Src-like Family Kinase activity
- oral bioavailability [7]: > 90%
